According to patent US10112937B2, “P2X7 modulators and methods of use” (Janssen Pharmaceutica NV, priority 2013, dated 2018):

Biological target: human P2X7 (Homo sapiens (Human), UniProt Q99572)
Test: P2X7 antagonism in human PBMCs (IL-1β release after LPS + Bz-ATP, ELISA)
Format: cell-based
Settings: test compound 10 μM

human P2X7, sequence (Q99572 whole entry): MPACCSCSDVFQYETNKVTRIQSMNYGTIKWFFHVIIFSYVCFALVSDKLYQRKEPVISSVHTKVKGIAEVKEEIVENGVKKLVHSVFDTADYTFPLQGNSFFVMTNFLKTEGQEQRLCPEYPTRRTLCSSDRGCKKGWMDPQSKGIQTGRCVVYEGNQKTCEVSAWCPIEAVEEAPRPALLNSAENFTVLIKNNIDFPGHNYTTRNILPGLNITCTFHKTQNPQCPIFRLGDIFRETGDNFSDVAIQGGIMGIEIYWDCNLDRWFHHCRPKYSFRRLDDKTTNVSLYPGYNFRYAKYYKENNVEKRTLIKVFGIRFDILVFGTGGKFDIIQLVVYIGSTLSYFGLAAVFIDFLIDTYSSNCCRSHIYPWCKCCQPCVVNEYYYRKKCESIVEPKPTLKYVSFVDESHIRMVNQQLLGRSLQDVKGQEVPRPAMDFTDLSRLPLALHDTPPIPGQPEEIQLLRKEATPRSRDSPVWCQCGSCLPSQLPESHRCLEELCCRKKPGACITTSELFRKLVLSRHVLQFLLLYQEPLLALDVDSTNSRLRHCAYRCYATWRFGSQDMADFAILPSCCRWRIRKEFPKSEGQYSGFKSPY

Compound | PBMC 10 μM (% control) (human PBMCs) | PBMC 10 μM (% control) (LPS 30 ng/ml + 0.5 mM Bz-ATP)
CC1CN(C(=O)c2cccc(Cl)c2Cl)Cc2nnn(-c3ccc(F)cc3)c21 (stereo not shown) [Example 247, (2,3-Dichlorophenyl)(1-(4-fluorophenyl)-7-methyl-6,7-dihydro-1H-[1,2,3]triazolo[4,5-c]pyridin-5(4H)-yl)methanone] | −0.8 % control | –
CC1c2nnn(-c3ncco3)c2CCN1C(=O)c1cccc(C(F)(F)F)c1Cl (stereo not shown) [Example 250, (2-Chloro-3-(trifluoromethyl)phenyl)(4-methyl-1-(oxazol-2-yl)-6,7-dihydro-1H-[1,2,3]triazolo[4,5-c]pyridin-5(4H)-yl)methanone] | −1.3 % control | –
Cc1ccnc(-n2nnc3c2CCN(C(=O)c2cccc(C(F)(F)F)c2Cl)C3C)n1 (stereo not shown) [Example 252, (2-Chloro-3-(trifluoromethyl)phenyl)(4-methyl-1-(4-methylpyrimidin-2-yl)-6,7-dihydro-1H-[1,2,3]triazolo[4,5-c]pyridin-5(4H)-yl)methanone] | −0.8 % control | –
Cc1cc(C)nc(-n2nnc3c2CCN(C(=O)c2cccc(C(F)(F)F)c2Cl)C3C)n1 (stereo not shown) [Example 253, (2-Chloro-3-(trifluoromethyl)phenyl)(1-(4,6-dimethylpyrimidin-2-yl)-4-methyl-6,7-dihydro-1H-[1,2,3]triazolo[4,5-c]pyridin-5(4H)-yl)methanone] | −2.6 % control | −2.6 % control
CCc1cccnc1-n1nnc2c1CCN(C(=O)c1cccc(C(F)(F)F)c1Cl)C2C (stereo not shown) [Example 254, (2-Chloro-3-(trifluoromethyl)phenyl)(1-(3-ethylpyridin-2-yl)-4-methyl-6,7-dihydro-1H-[1,2,3]triazolo[4,5-c]pyridin-5(4H)-yl)methanone] | 0.9 % control | –
O=C(c1ccc(Cl)cc1Cl)N1CCc2c(nnn2-c2ncccn2)C1 [Example 257, (2,4-dichlorophenyl)(1-(pyrimidin-2-yl)-6,7-dihydro-1H-[1,2,3]triazolo[4,5-c]pyridin-5(4H)-yl)methanone] | 7.1 % control | –
CCOc1cccnc1-n1nnc2c1CCN(C(=O)c1cccc(C(F)(F)F)c1Cl)C2C (stereo not shown) [Example 258, (2-Chloro-3-(trifluoromethyl)phenyl)(1-(3-ethoxypyridin-2-yl)-4-methyl-6,7-dihydro-1H-[1,2,3]triazolo[4,5-c]pyridin-5(4H)-yl)methanone] | −3.2 % control | –
Cc1cccnc1-n1nnc2c1CCN(C(=O)c1cccc(C(F)(F)F)c1Cl)C2C (stereo not shown) [Example 259, (2-Chloro-3-(trifluoromethyl)phenyl)(4-methyl-1-(3-methylpyridin-2-yl)-6,7-dihydro-1H-[1,2,3]triazolo[4,5-c]pyridin-5(4H)-yl)methanone] | −3.5 % control | –
COc1cccnc1-n1nnc2c1CCN(C(=O)c1cccc(C(F)(F)F)c1Cl)C2C (stereo not shown) [Example 260, (2-Chloro-3-(trifluoromethyl)phenyl)(1-(3-methoxypyridin-2-yl)-4-methyl-6,7-dihydro-1H-[1,2,3]triazolo[4,5-c]pyridin-5(4H)-yl)methanone] | 1.4 % control | –
CC1Cc2c(-c3ccnn3C)nn(C)c2CN1C(=O)c1cccc(C(F)(F)F)c1Cl (stereo not shown) [Example 266, (2-chloro-3-(trifluoromethyl)phenyl)(1,5-dimethyl-3-(1-methyl-1H-pyrazol-5-yl)-4,5-dihydro-1H-pyrazolo[3,4-c]pyridin-6(7H)-yl)methanone] | 5.8 % control | –
O=C(c1ccc(Cl)cc1F)N1CCc2c(nnn2-c2cnccn2)C1 [Example 272, (4-chloro-2-fluorophenyl)(1-(pyrazin-2-yl)-6,7-dihydro-1H-[1,2,3]triazolo[4,5-c]pyridin-5(4H)-yl)methanone] | −7.6 % control | –
CC1c2nnn(-c3cnccn3)c2CCN1C(=O)c1cccc(C(F)(F)F)c1F (stereo not shown) [Example 273, (2-fluoro-3-(trifluoromethyl)phenyl)(4-methyl-1-(pyrazin-2-yl)-6,7-dihydro-1H-[1,2,3]triazolo[4,5-c]pyridin-5(4H)-yl)methanone] | −2.1 % control | –
C[C@@H]1c2nnn(-c3ccc(F)cc3)c2C[C@H](C)N1C(=O)c1cccc(C(F)(F)F)c1Cl [Example 287, (2-chloro-3-(trifluoromethyl)phenyl)((4R,6S)-1-(4-fluorophenyl)-4,6-dimethyl-6,7-dihydro-1H-[1,2,3]triazolo[4,5-c]pyridin-5(4H)-yl)methanone] | −4.1 % control | −4.1 % control
CC1c2nn(COCC[Si](C)(C)C)c(-c3ncc(F)cn3)c2CCN1C(=O)c1cccc(C(F)(F)F)c1Cl (stereo not shown) [Example 303, (2-chloro-3-(trifluoromethyl)phenyl)(3-(5-fluoropyrimidin-2-yl)-7-methyl-2-((2-(trimethylsilyl)ethoxy)methyl)-4,5-dihydro-2H-pyrazolo[3,4-c]pyridin-6(7H)-yl)methanone] | −1.6 % control | –

More lines, main results first:

PBMC 10 μM (% control) (human PBMCs) | Compound | PBMC 10 μM (% control) (LPS 30 ng/ml + 0.5 mM Bz-ATP)
−4.8 % control | CC1c2nnn(-c3cnccn3)c2CCN1C(=O)c1ccc(Cl)cc1F (stereo not shown) [Example 274, (4-chloro-2-fluorophenyl)(4-methyl-1-(pyrazin-2-yl)-6,7-dihydro-1H-[1,2,3]triazolo[4,5-c]pyridin-5(4H)-yl)methanone] | –
−8.3 % control | CC1c2nnn(-c3ncccn3)c2CCN1C(=O)c1ccc(Cl)cc1F (stereo not shown) [Example 275, (4-chloro-2-fluorophenyl)(4-methyl-1-(pyrimidin-2-yl)-6,7-dihydro-1H-[1,2,3]triazolo[4,5-c]pyridin-5(4H)-yl)methanone] | –
−0.9 % control | Cc1c(C(=O)N2CCc3c(nnn3-c3cnccn3)C2)cccc1C(F)(F)F [Example 276, (2-methyl-3-(trifluoromethyl)phenyl)(1-(pyrazin-2-yl)-6,7-dihydro-1H-[1,2,3]triazolo[4,5-c]pyridin-5(4H)-yl)methanone] | –
−5.5 % control | Cc1c(C(=O)N2CCc3c(nnn3-c3ncccn3)C2C)cccc1C(F)(F)F (stereo not shown) [Example 282, (4-methyl-1-(pyrimidin-2-yl)-6,7-dihydro-1H-[1,2,3]triazolo[4,5-c]pyridin-5(4H)-yl)(2-methyl-3-(trifluoromethyl)phenyl)methanone] | –
−6.3 % control | CC1c2nnn(-c3ncccn3)c2CCN1C(=O)c1ccc(Cl)cc1Cl (stereo not shown) [Example 283, (2,4-dichlorophenyl)(4-methyl-1-(pyrimidin-2-yl)-6,7-dihydro-1H-[1,2,3]triazolo[4,5-c]pyridin-5(4H)-yl)methanone] | –
−2.6 % control | C[C@H]1Cc2c(nnn2-c2ccc(F)cc2)[C@H](C)N1C(=O)c1cccc(C(F)(F)F)c1Cl [Example 285, (2-chloro-3-(trifluoromethyl)phenyl)((4S,6S)-1-(4-fluorophenyl)-4,6-dimethyl-6,7-dihydro-1H-[1,2,3]triazolo[4,5-c]pyridin-5(4H)-yl)methanone] | –
5.8 % control | C[C@@H]1Cc2c(nnn2-c2ccc(F)cc2)[C@H](C)N1C(=O)c1cccc(C(F)(F)F)c1Cl [Example 286, (2-chloro-3-(trifluoromethyl)phenyl)((4S,6R)-1-(4-fluorophenyl)-4,6-dimethyl-6,7-dihydro-1H-[1,2,3]triazolo[4,5-c]pyridin-5(4H)-yl)methanone] | –
4.4 % control | C[C@H]1Cc2c(nnn2-c2ccccc2)CN1C(=O)c1cccc(C(F)(F)F)c1Cl [Example 288, (S)-(2-chloro-3-(trifluoromethyl)phenyl)(6-methyl-1-phenyl-6,7-dihydro-1H-[1,2,3]triazolo[4,5-c]pyridin-5(4H)-yl)methanone] | –
3.6 % control | C[C@@H]1Cc2c(nnn2-c2ccn[nH]2)[C@@H](C)N1C(=O)c1cccc(C(F)(F)F)c1Cl [Example 296, (2-chloro-3-(trifluoromethyl)phenyl)((4R,6R)-4,6-dimethyl-1-(1H-pyrazol-5-yl)-6,7-dihydro-1H-[1,2,3]triazolo[4,5-c]pyridin-5(4H)-yl)methanone] | –
2.6 % control | C[C@@H]1Cc2c(nnn2-c2ccn[nH]2)[C@H](C)N1C(=O)c1cccc(C(F)(F)F)c1Cl [Example 297, (2-chloro-3-(trifluoromethyl)phenyl)((4S,6R)-4,6-dimethyl-1-(1H-pyrazol-5-yl)-6,7-dihydro-1H-[1,2,3]triazolo[4,5-c]pyridin-5(4H)-yl)methanone] | –
1.5 % control | Cc1ccnc(-n2nnc3c2CCN(C(=O)c2cccc(C(F)(F)F)c2Cl)C3C)c1 (stereo not shown) [Example 299, (2-chloro-3-(trifluoromethyl)phenyl)(4-methyl-1-(4-methylpyridin-2-yl)-6,7-dihydro-1H-[1,2,3]triazolo[4,5-c]pyridin-5(4H)-yl)methanone] | –
−1.8 % control | Cc1cc(C)nc(-n2nnc3c2CCN(C(=O)c2cccc(C(F)(F)F)c2Cl)C3C)c1 (stereo not shown) [Example 300, (2-chloro-3-(trifluoromethyl)phenyl)(1-(4,6-dimethylpyridin-2-yl)-4-methyl-6,7-dihydro-1H-[1,2,3]triazolo[4,5-c]pyridin-5(4H)-yl)methanone] | –
−2.2 % control | Cc1ccc(-n2nnc3c2CCN(C(=O)c2cccc(C(F)(F)F)c2Cl)C3C)nc1 (stereo not shown) [Example 301, (2-chloro-3-(trifluoromethyl)phenyl)(4-methyl-1-(5-methylpyridin-2-yl)-6,7-dihydro-1H-[1,2,3]triazolo[4,5-c]pyridin-5(4H)-yl)methanone] | –
−2.8 % control | Cc1cccc(-n2nnc3c2CCN(C(=O)c2cccc(C(F)(F)F)c2Cl)C3C)n1 (stereo not shown) [Example 302, (2-chloro-3-(trifluoromethyl)phenyl)(4-methyl-1-(6-methylpyridin-2-yl)-6,7-dihydro-1H-[1,2,3]triazolo[4,5-c]pyridin-5(4H)-yl)methanone] | –
3.2 % control | C[C@H]1Cc2c(nnn2-c2ncc(F)cn2)CN1C(=O)c1cccc(C(F)(F)F)c1 [Example 304, (S)-(1-(5-fluoropyrimidin-2-yl)-6-methyl-6,7-dihydro-1H-[1,2,3]triazolo[4,5-c]pyridin-5(4H)-yl)(3-(trifluoromethyl)phenyl)methanone] | –
